Entries after “also recorded” stand apart in the source; their conditions may differ.
What was measured:
hCB2 = target: T1, hCB2 (Homo sapiens, UniProt P34972); experiment: Radioligand ([3H]CP-55,940) displacement binding in hCB2-CHO-K1 cell membranes
T1 construct: purchased PerkinElmer ES111-M400UA; host or cells: CHO-K1 cells stably transfected
Procedure: The assay was performed as described previously. […] Plasma membranes were from cultured CHO-K1 cells stably transfected with human CB2R (Perkin Elmer). Two microgram plasma membrane protein was used in a 1 mL reaction mixture. Ki values were derived by computerized curve fitting and using the Cheng-Prusoff equation to account for the affinity of the radioligand, using the GraphPad Prism 8 program (GraphPad Prism Software Inc.).

cannabinoid receptor CB2 [1] = target: T2, cannabinoid receptor CB2 (Homo sapiens, UniProt P34972); experiment: GEF G protein activation assay on purified CB2 reconstituted in liposomes; assay type: biochemical; parameters: E. coli construct) (cleaved yes); twin-Streptag (N); His10 (C); made in house; host or cells: E. coli BL21 (DE3) and Expi293F GNTI-
Text: To assess the possible role of post-translational modifications of CB2 on its activation by the MRI ligands, the recombinant CB2 receptor was isolated from two different expression cell lines, E. coli BL21 (DE3)[41] and Expi293F GNTI^-[42]. The protein was purified and reconstituted into lipid bilayers containing 1-palmitoyl-2-oleoyl-glycero-3-phosphocholine (POPC) and, 1-palmitoyl-2-oleoyl-sn-glycero-3-phospho-(1′-rac-glycerol) (POPG) at a molar ratio of 3/1, either supplemented or not supplemented with cholesterol, as described in “Methods”[10],[13]. We reported previously that the presence of phospholipids with a negatively charged headgroup stabilizes CB2 protein in lipid bilayers. Therefore, purified CB2 was reconstituted into POPC/POPG (3/1, mol/mol) liposomes containing 0, 20 and 40 mol% cholesterol (reported as total content of lipids) as described in “Methods”. In one case, the protein purified from E. coli cells was reconstituted into lipids extracted from brain tissue (Avanti Polar Lipids). The ratio of protein-to-lipid in the resulting samples was in the range of 1:850 to1:1100 (mol/mol). The levels of protein, and the density of ligand binding sites for receptor preparations reconstituted in liposomes with different content of cholesterol varied only slightly (Supporting Fig. 5a,b).
Figure 7 Activation of G protein on CB2 receptor reconstituted in liposomes. Liposome composition: 75% POPC, 25% POPG and cholesterol content relative to total phospholipids as indicated, or total lipids extracted from bovine brain, as indicated. Proteins were reconstituted at a protein-to-lipid ratio in the range 1:850 to 1:1100 mol/mol. (a–d) CB2 purified from E. coli cells. (e,f) CB2 purified from Expi293F GNTI^- cells. Average values of four independent measurements are plotted (n = 4). Dotted lines represent the rates of activation of G protein in the absence of a ligand.
Reconstitution of the purified CB2 into liposomes was performed as described earlier. Briefly, 200 μg of the purified protein was mixed with 2 mg of lipid mixture (POPC:POPG, 3:1, mol/mol without or with addition or 20 mol% or 40 mol% of cholesterol) solubilized in 1% CHAPS at a concentration of 5 mg lipid/mL, and incubated on ice for 30 min. The detergents were then removed on 4 mL Detergent Removal spin column (Pierce), according to manufacturer’s instructions. The combined filtrate containing proteoliposomes was collected, and aliquots frozen in liquid nitrogen. Frozen liposomes were stored at − 80 °C until further use. Content of protein in proteoliposomes was determined by BioRad DC assay.
(§1) The subunits of G protein were expressed and purified as described previously. The nucleotide exchange assay was performed as previously described.

cannabinoid receptor CB2 [2] = target: T2, cannabinoid receptor CB2; experiment: [35S]GTP nucleotide exchange (GEF) G protein activation assay on CB2 in cell membrane preparations; assay type: biochemical; parameters: purchased PerkinElmer; Millipore ChemiScreen; Applied Cell Sciences; Signal Screen (Sf9); E. coli BL21 (DE3) and Expi293F membranes were made in house; ES111-M400UA; A318; 6110130; host or cells: CHO, CHO-K1, Sf9, Expi293F, Expi293F GNTI-, E. coli BL21 (DE3)
Text: To better understand the reason for these discrepancies, we assessed the activation of CB2 receptor by the in vitro G protein activation assay that measures the rates of nucleotide exchange on the Gα subunit of G protein (GEF assay) as described previously[33],[34]. The assay reports the rates of formation of the complex of [^35S]-GTPγS, a homolog of GTP, with the Gα subunit of G protein. Typical assay conditions require small (nanogram) quantities of the receptor protein either in cell membranes or reconstituted into lipid bilayers. The readout of the assay is the amount of the non-hydrolysable complex of Gα with [^35S]-GTPγS which, under selected experimental conditions, is proportional to the amount of activated receptor in the assay.
Figure 3 GEF of CB2 expressed in: (a) E. coli membranes and (b) CHO membranes (Millipore EMD). 2 μg of total protein per assay. Each point represents an average of four independent measurements (n = 4). Ligands were added at a concentration of 2 μM to ensure saturation of the receptor, and G protein was added as described in “Methods”. The dotted line indicates the rates of activation of G protein in the absence of a ligand. The rates of activation with […] are set to 100%, and rates of activation in the presence of SR-144,528 to 0%.
Figure 4 GEF on CB2 expressed in different cell lines. An amount of 2 μg of membrane protein per assay was used. Each data points represents an average of four independent measurements (n = 4) with error rates indicated by the bars. 100% represents full activation in the presence of 2 μM of CP-55,940, and 0%–with 2 μM SR-144,528.
as §1

T2 sequence (P34972 whole entry): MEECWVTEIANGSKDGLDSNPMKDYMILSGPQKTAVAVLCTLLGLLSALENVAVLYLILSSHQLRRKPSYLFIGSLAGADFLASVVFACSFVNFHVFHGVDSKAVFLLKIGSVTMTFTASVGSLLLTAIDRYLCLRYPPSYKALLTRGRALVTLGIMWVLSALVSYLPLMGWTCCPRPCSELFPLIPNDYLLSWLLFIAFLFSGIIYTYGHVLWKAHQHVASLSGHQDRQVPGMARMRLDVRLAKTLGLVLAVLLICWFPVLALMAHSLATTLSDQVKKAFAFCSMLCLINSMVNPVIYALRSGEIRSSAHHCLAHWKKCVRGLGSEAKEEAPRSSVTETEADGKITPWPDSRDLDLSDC
T1 sequence (P34972 whole entry): as above

## CC(=O)OCCn1c(=NC(=O)C2C(C)(C)C2(C)C)sc2cc(Cl)ccc21 [MRI-2646, 2-(6-Chloro-2-((2,2,3,3-tetramethylcyclopropane-1-carbonyl)imino)benzo[d]thiazol-3(2H)-yl)ethyl acetate]
hCB2
  Ki: 0.079 ± 0.011 nM
Cannabinoid receptor CB2 [1]; CB2 from E. coli, POPC/POPG liposomes devoid of cholesterol
  Pharmacological category in GEF assay: partial agonist
Cannabinoid receptor CB2 [1]; CB2 from E. coli, liposomes with 20% or 40% cholesterol or brain lipid extract
  Pharmacological category in GEF assay: partial inverse agonist
Cannabinoid receptor CB2 [1]; CB2 from Expi293F GNTI- (HEK) cells, liposomes with 40% of cholesterol
  Pharmacological category in GEF assay: partial inverse agonist
Cannabinoid receptor CB2 [1]; CB2 from Expi293F GNTI- cells, liposomes without cholesterol
  Pharmacological category in GEF assay: partial agonist
Cannabinoid receptor CB2 [2]; CB2 in CHO membranes (EMD Millipore), ligand 2 μM
  Pharmacological category in GEF assay: partial inverse agonist
Cannabinoid receptor CB2 [2]; CB2 in CHO membranes (PerkinElmer)
  Pharmacological category in GEF assay: neutral antagonist
Cannabinoid receptor CB2 [2]; CB2 in CHO-K1 membranes (Applied Cell Sciences)
  Pharmacological category in GEF assay: partial inverse agonist
Cannabinoid receptor CB2 [2]; CB2 in E. coli BL21 (DE3) membranes (untreated), ligand 2 μM
  Pharmacological category in GEF assay: partial agonist; also recorded: agonistic effects; also recorded: weaker agonist
Cannabinoid receptor CB2 [2]; CB2 in Expi293F GNTI- membranes
  Pharmacological category in GEF assay: partial inverse agonist
Cannabinoid receptor CB2 [2]; CB2 in Expi293F membranes
  Pharmacological category in GEF assay: partial inverse agonist
Cannabinoid receptor CB2 [2]; CB2 in baculovirus infected insect Sf9 cell membranes
  Pharmacological category in GEF assay: partial agonist
Cannabinoid receptor CB2 [2]; CHO membranes (PerkinElmer), with and without exogenous G protein
  Pharmacological category in GEF assay: neutral antagonist
Cannabinoid receptor CB2 [2]; E. coli membranes treated with 20 mM MβCD/cholesterol
  Pharmacological category in GEF assay: neutral antagonist
Cannabinoid receptor CB2 [2]; Expi293F membranes treated with 20 mM MβCD (cholesterol depleted)
  Pharmacological category in GEF assay: partial agonist
Cannabinoid receptor CB2 [2]; Expi293F membranes, with and without exogenous G protein
  Pharmacological category in GEF assay: inverse agonist
Cannabinoid receptor CB2 [2]; Sf9 membranes, with and without exogenous G protein
  Pharmacological category in GEF assay: partial agonist
Cannabinoid receptor CB2 [2]; bacterial- and insect-cell membranes
  Pharmacological category on CB2: partial agonist
Cannabinoid receptor CB2 [2]; cholesterol-containing membranes
  Pharmacological category on CB2: neutral antagonist or a partial inverse agonist; also recorded: either as an inverse agonist or a neutral antagonist
Cannabinoid receptor CB2 [2]; mammalian cell membranes
  Pharmacological category on CB2: inverse agonist or neutral antagonist
Cannabinoid receptor CB2 [2]; membranes devoid of cholesterol
  Pharmacological category on CB2: partial agonist

Source: article PMC7881127, “Cholesterol as a modulator of cannabinoid receptor CB2 signaling” (Scientific Reports, 2021)
